Molecules are shown by their SMILES. Active and inactive are the calls of the source. Rule as the data show it: actives have a measured IC50 and inactives only a lower limit.

In the assay the target is Envelope glycoprotein gp160 (Human immunodeficiency virus 1, UniProt Q6QLK5). Nature of the assay: inhibitors of HIV fusion peptide binding, primary screen, biochemical, uHTS, fluorescence dequenching (AID 1986).
Chain of Envelope glycoprotein gp160 (Q6QLK5 whole entry, the tested form may be a part): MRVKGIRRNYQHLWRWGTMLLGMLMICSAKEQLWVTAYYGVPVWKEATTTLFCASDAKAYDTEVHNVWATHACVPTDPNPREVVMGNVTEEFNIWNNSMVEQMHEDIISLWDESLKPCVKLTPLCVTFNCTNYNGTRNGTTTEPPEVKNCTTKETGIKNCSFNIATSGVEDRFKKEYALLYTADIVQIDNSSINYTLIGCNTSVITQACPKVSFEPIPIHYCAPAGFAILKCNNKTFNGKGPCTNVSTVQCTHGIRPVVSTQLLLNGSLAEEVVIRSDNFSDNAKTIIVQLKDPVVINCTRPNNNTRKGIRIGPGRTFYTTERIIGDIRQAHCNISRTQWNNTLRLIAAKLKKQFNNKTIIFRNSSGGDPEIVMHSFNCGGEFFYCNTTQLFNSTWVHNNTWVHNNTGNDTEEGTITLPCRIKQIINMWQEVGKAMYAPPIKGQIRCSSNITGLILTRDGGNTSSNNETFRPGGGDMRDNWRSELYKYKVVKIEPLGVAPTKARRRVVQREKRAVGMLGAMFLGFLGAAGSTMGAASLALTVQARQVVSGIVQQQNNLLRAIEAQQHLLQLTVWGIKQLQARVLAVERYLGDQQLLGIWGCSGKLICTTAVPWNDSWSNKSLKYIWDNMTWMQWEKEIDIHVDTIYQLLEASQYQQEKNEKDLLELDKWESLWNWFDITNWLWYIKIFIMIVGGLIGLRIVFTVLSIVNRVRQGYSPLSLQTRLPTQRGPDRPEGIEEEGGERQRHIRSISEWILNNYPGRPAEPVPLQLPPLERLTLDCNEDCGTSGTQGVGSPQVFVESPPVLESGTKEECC
As a reminder, the IC50 is the concentration at which inhibition is half-maximal. In the case of `COc1cc(/C=C2\C(=N)N3N=C(S(C)(=O)=O)SC3=NC2=O)cc(OC)c1OCCOc1ccccc1C`, the IC50 was 14.6 µM (active).
In the case of `Cc1ccc(-n2cccc2/C=C2/C(=N)N3C(=NC2=O)SN=C3S(C)(=O)=O)cc1Cl`, the IC50 is 6.32 µM (active).
Regarding `O=C1NN(c2ccc(Cl)c(Cl)c2)C(=O)/C1=C/c1ccc(-c2ccccc2C(=O)O)o1`, the IC50 was 15.7 µM (active).
Take `O=C(O)c1cccc(NC(=S)N/N=C/c2ccccc2OCc2cccc(Br)c2)c1`: the IC50 is 13.2 µM (active).

Values taken from ChEMBL document CHEMBL1201862, “PubChem BioAssay data set” (2004).
